Source: patent US20230024528A1, “METHODS OF USE OF ANTI-TREM2 ANTIBODIES” (Alector LLC, priority 2019, published 2023)

Tested on: human macrophages
Assay: Human macrophage cell viability and survival following CSF1R inhibition with PLX3397, CellTiter-Glo
Type: cell-based
Conditions: PLX3397 30 nM alone, complete RPMI media
Protocol: To evaluate the ability of an anti-TREM2 antibody to sustain survival of human macrophages after CSF1R inhibition, the ability of AL2p-58 huIgG1 PSEG to enhance cell-viability and survival in the presence of CSF1R inhibitor PLX3397 was tested (DeNardo et al., Cancer Discov (2011) 1(1):54-67. 22039576t; Peng, et al., J. of Exp Canc Res (2019) 38(1):372. PMID: 31438996). Similar to CSF1 withdrawal experiments, human derived macrophages were plated onto 96-well plates on Day 6 and treated with IgG1, PLX3397 (30 nM), AL2p-58 huIgG1 PSEG (10 μg/mL) or a combination of PLX3397 and AL2p-58 huIgG1 PSEG on Day 7, all in complete RPMI media. Cell viability was quantified using the CellTiter-Glo luminescent viability assay (Promega) on each subsequent day.

FC(F)(F)c1ccc(CNc2ccc(Cc3c[nH]c4ncc(Cl)cc34)cn2)cn1 [PLX3397, reference compound]
cell viability of human macrophages treated with CSF1R inhibitor alone: reduced cell viability
